Structures can show the parent of a compound that is named as a salt.
Key:
human IGF1R = biological target: T1, human IGF1R (Homo sapiens, UniProt P08069); assay: Inhibition of insulin-like growth factor-1 receptor phosphorylation in R+ cells; type: cell-based; details: 30 nM IGF1, read-out: IGF cell class
T1 construct: expressed in transfected cells; host or cells: R+ cells (R- mouse fibroblasts transfected with human IGF1R)
Experimental: This immunofluorescence end point cell assay measures the ability of a test compound to reduce the measured levels of IGF1R phosphorylation after IGF1 stimulation in R^+ cells. […] were derived by transfection of R^− mouse fibroblast cells with human IGF1R.
(+5% CO2) incubator for 30 minutes.
Following the compound treatment, the R^+ cells were stimulated with a final concentration of 30 nM IGF1 (Gropep 1M001) for 20 minutes at 37° C. […] Plates were incubated for 1 hour at room temperature. […] Additionally, in-house antibodies raised against phospho […] were also used at a suitable titre determined for each batch.
The plates were incubated at room temperature for one hour. […] After addition of 100 μl/well PBS the plates were sealed with a black seal.
The Green Fluorescent phospho IGF1R -associated signal in each well was measured using an Acumen Explorer HTS Reader (TTP Labtech Ltd., Cambridge). […] The instrument is a laser-scanning fluorescence microplate cytometer, which samples the well at regular intervals and uses threshold algorithms to identify all fluorescent intensities above the solution background without the need to generate and analyse an image. These fluorescent objects can be quantified and provide a measure of the phospho IGF1R levels in cells. Fluorescence dose response data obtained with each compound was exported into a suitable software package (such as Origin) to perform curve fitting analysis. Phospho-IGF1R levels in response to compound treatment versus stimulated and unstimulated controls were expressed as an IC50 value.

FGFR1 kinase = FGFR1 kinase (Homo sapiens, UniProt P11362); assay: Kinase assay (using Caliper technology); type: biochemical; details: FGFR1 kinase, Caliper; upper bound of bin; read-out: IC50
Sequence of FGFR1 kinase (P11362 22-822): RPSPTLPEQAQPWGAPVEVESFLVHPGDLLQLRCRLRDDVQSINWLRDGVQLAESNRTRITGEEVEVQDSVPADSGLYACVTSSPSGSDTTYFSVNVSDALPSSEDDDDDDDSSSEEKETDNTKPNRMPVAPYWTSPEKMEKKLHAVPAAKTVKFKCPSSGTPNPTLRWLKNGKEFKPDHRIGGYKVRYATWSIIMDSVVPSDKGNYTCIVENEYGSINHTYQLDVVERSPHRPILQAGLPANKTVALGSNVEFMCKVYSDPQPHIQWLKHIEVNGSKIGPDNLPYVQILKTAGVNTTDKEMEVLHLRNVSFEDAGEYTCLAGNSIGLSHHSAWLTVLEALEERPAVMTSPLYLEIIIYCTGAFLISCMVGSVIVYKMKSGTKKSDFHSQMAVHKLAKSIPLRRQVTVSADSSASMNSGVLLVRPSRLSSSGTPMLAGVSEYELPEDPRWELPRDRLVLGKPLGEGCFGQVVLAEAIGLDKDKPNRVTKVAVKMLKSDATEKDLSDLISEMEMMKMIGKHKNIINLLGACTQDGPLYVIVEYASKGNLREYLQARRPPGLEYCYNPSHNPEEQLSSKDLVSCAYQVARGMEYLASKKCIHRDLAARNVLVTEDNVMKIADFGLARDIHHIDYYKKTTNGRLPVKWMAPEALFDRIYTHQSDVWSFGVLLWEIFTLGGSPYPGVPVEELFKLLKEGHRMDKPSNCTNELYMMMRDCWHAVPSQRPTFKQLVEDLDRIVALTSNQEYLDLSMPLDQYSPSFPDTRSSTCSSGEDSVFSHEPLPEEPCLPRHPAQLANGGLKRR
Experimental: To determine inhibition of FGFR activity, kinase assays were conducted using Caliper technology.
Kinase activity assays were performed in Greiner 384-well low volume plates, with a total reaction volume of 12ul per well. […] The substrate for each assay was a custom peptide with fluorescent tag (13 amino acids in length) the sequence of which was specific for FGFR1 kinase.
Compounds were serially diluted in 5% (v/v) DMSO, before being added to assay plates.
Assay plates were incubated at room temperature for 1.5 h, before the reaction was stopped with the addition of buffer [comprising: 100 mM HEPES—pH7.5, 0.033% Brij-35, 0.22% Caliper Coating Reagent #3, 88mM EDTA, 5% DMSO]. Stopped assay plates were then read using the Caliper LabChip® LC3000 (which uses microfludics to measure a shift in mobility between fluorescent labelled peptide and the FGFR1 kinase—phosphorylated form of this peptide).

FGFR1 IIIc = biological target: T2, FGFR1 IIIc (Homo sapiens, UniProt P11362); assay: Cell based inhibition of transiently expressed FGFR1 IIIc phosphorylation via use of ECHO technology (Cos-1 cells); details: Cos-1 cells, phospho-FGFR1, ECHO dosing; upper bound of bin; read-out: IC50
T2 construct: host or cells: Cos-1
T2 sequence (P11362 22-822): as above
Experimental: This assay is designed to detect inhibitors of transiently expressed FGFR1 phosphorylation by antibody staining of fixed cells detected using ArrayScan technology.
To undertake the assay, Cos-1 cells were harvested at 90-95% confluence for cell transfection. For each 96-well plate, 24μl Lipofectamine 2000 was added to 809 ul OptiMEM and incubated at room temperature for 5 minutes. […] Equal volumes of DNA and Lipofectamine 2000 were combined (DNA: Lipid=1:1.2 ratio) and incubated at room temperature for 20 minutes.
The harvested Cos-1 cells are counted using a coulter counter and diluted further with 1% FCS/DMEM to 2.5×10^5 cells/ml. For each 96-well, 8.33 ml cells were required. […] 70 μl of media was aspirated from the assay plate using the Quadra before the plate was transferred onto the ECHO 550. […] Compound transfer to the assay plate on the ECHO 550 was at concentration ranges 1)10 μM, 2) 3 μM, 3) 1 μM, 4) 0.3 μM, 5) 0.1 μM, 6) […].
The plates were gently tapped to mix compound in with the cell media and left to incubate at 37° C. with 5% CO2 for 1 hour.
Media was removed from the wells using vacuum aspiration; cells were fixed by adding 50 μl of 100% methanol to each well and incubated at room temperature for 20 minutes.
The plates were read on an Arrayscan (Cellomics).

T1 sequence (P08069 31-1367): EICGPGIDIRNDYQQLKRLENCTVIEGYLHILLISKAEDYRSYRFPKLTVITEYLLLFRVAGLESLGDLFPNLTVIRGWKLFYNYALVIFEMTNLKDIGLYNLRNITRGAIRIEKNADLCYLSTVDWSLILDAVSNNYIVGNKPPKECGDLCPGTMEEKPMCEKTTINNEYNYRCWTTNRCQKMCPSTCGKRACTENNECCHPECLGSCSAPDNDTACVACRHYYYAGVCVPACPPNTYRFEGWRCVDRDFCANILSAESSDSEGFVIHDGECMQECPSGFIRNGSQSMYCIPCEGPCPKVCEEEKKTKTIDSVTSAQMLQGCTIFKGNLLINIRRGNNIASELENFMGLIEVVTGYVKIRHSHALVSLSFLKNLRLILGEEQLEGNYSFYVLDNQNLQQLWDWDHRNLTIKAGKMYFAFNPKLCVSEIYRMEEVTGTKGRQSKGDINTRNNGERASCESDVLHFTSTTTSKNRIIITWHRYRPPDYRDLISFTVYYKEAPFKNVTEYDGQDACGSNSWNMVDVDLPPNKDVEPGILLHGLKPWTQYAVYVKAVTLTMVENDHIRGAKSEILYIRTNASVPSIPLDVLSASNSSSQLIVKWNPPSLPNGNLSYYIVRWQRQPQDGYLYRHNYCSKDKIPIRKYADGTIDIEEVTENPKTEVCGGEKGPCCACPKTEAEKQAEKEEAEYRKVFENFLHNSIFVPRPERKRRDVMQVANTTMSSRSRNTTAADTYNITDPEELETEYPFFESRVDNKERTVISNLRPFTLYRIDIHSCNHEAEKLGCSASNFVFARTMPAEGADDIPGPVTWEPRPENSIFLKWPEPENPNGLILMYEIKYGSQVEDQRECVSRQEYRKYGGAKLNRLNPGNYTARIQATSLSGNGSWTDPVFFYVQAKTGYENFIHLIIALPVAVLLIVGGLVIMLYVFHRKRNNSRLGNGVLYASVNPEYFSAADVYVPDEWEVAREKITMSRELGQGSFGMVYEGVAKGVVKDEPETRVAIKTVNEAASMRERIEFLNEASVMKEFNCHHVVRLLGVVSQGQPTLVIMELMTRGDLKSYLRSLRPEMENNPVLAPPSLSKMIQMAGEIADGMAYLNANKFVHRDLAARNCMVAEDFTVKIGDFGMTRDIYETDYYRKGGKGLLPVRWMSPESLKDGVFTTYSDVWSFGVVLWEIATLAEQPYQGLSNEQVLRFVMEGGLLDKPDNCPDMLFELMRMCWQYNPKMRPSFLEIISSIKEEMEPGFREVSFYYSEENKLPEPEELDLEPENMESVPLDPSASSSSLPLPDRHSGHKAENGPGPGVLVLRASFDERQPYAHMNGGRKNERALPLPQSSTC

| SMILES | IC50 (human IGF1R) | IC50 (FGFR1 kinase) | IC50 (FGFR1 IIIc) |
| --- | --- | --- | --- |
| COCCCc1cc(Nc2ccnc(NCc3cc(C4CC4)no3)n2)n[nH]1 [Example 18, N-[(3-cyclopropyl-1,2-oxazol-5-yl)methyl]-N′-[5-(3-methoxypropyl)-2H-pyrazol-3-yl]pyrimidine-2,4-diamine] | 1000 to 10000 nM |  |  |
| COCC(C)Oc1cc(Nc2ccnc(NCc3cc(C)no3)n2)n[nH]1 (centres unmarked) [Example 75, N′-[5-(1-methoxypropan-2-yloxy)-1H-pyrazol-3-yl]-N-[(3-methyl-1,2-oxazol-5-yl)methyl]pyrimidine-2,4-diamine] | > 10000 nM | < 10000 nM |  |
| CCOc1ccc(COc2cc(Nc3ccnc(NCc4cc(C)no4)n3)n[nH]2)cc1OC [Example 99, N′-[5-[(4-ethoxy-3-methoxy-phenyl)methoxy]-1H-pyrazol-3-yl]-N-[(3-methyl1,2-oxazol-5-yl)methyl]pyrimidine-2,4-diamine] | > 10000 nM | < 10000 nM |  |
| Cc1cc(CNc2nccc(Nc3cc(CCc4cccc(OC(C)C)c4)[nH]n3)n2)on1 [Example 122, N-[(3-methyl-1,2-oxazol-5-yl)methyl]-N′-[5-[2-(3-propan-2-yloxyphenyl)ethyl]-1H-pyrazol-3-yl]pyrimidine-2,4-diamine] |  | < 1000 nM | < 1000 nM |
| NC(=O)c1cc(CNc2nccc(Nc3cc(CCc4cccc(OCC5CC5)c4)[nH]n3)n2)on1 [Example 123, 5-[[[4-[[5-[2-[3-(cyclopropylmethoxy)phenyl]ethyl]-1H-pyrazol-3-yl]amino]pyrimidin-2-yl]amino]methyl]-1,2-oxazole-3-carboxamide] |  | < 1000 nM | < 10000 nM |
| COc1cc(CCc2cc(Nc3ccnc(NCc4cc(C)no4)n3)n[nH]2)cc(OC)n1 [Example 124, N′-[5-[2-(2,6-dimethoxypyridin-4-yl)ethyl]-1H-pyrazol-3-yl]-N-[(3-methyl-1,2-oxazol-5-yl)methyl]pyrimidine-2,4-diamine] |  | < 200 nM | < 200 nM |
| Cc1cc(CNc2nccc(Nc3cc(CCc4cccc(N)c4)[nH]n3)n2)on1 [Example 125, N′-[5-[2-(3-aminophenyl)ethyl]-1H-pyrazol-3-yl]-N-[(3-methyl-1,2-oxazol-5-yl)methyl]pyrimidine-2,4-diamine] |  | < 200 nM | < 1000 nM |
| COc1cc(Cl)cc(CCc2cc(Nc3ccnc(NCc4cc(C(N)=O)no4)n3)[nH]n2)c1 [Example 126, 5-[[[4-[[5-[2-(3-chloro-5-methoxy-phenyl)ethyl]-2H-pyrazol-3-yl]amino]pyrimidin-2-yl]amino]methyl]-1,2-oxazole-3-carboxamide] |  | < 200 nM | < 200 nM |
| COc1cncc(CCc2cc(Nc3ccnc(NCc4cc(CN(C)C)no4)n3)n[nH]2)c1 [Example 127, N-[[3-(dimethylaminomethyl)-1,2-oxazol-5-yl]methyl]-N′-[5-[2-(5-methoxypyridin-3-yl)ethyl]-1H-pyrazol-3-yl]pyrimidine-2,4-diamine] |  | < 1000 nM | < 30000 nM |
| COc1ccc(CCc2cc(Nc3ccnc(NCc4cc(C)no4)n3)n[nH]2)s1 [Example 129, N′-[5-[2-(5-methoxythiophen-2-yl)ethyl]-1H-pyrazol-3-yl]-N-[(3-methyl-1,2-oxazol-5-yl)methyl]pyrimidine-2,4-diamine] |  | < 10000 nM | < 1000 nM |
| COc1ncc(CCc2cc(Nc3ccnc(NCc4cc(C)no4)n3)n[nH]2)s1 [Example 130, N′-[5-[2-(2-methoxy-1,3-thiazol-5-yl)ethyl]-1H-pyrazol-3-yl]-N-[(3-methyl-1,2-oxazol-5-yl)methyl]pyrimidine-2,4-diamine] |  | < 1000 nM | < 10000 nM |
| COc1cc(C)cc(COc2cc(Nc3ccnc(NCc4cc(C)no4)n3)n[nH]2)c1 [Example 131, N′-[5-[(3-methoxy-5-methyl-phenyl)methoxy]-1H-pyrazol-3-yl]-N-[(3-methyl-1,2-oxazol-5-yl)methyl]pyrimidine-2,4-diamine] |  | < 200 nM | < 200 nM |
| CNC(=O)c1cc(CCc2cc(Nc3ccnc(NCc4cc(C)no4)n3)n[nH]2)cc(OC)c1 [Example 132, 3-Methoxy-N-methyl-5-[2-[5-[[2-[(3-methyl-1,2-oxazol-5-yl)methylamino]pyrimidin-4-yl]amino]-1H-pyrazol-3-yl]ethyl]benzamide] |  | < 200 nM | < 1000 nM |
| Cc1cc(CNc2nccc(Nc3cc(CCc4cccc(Oc5ncccn5)c4)[nH]n3)n2)on1 [Example 133, N-[(3-methyl-1,2-oxazol-5-yl)methyl]-N′-[5-[2-(3-pyrimidin-2-yloxyphenyl)ethyl]-1H-pyrazol-3-yl]pyrimidine-2,4-diamine hydrochloride] |  | < 200 nM | < 10000 nM |
| Cc1cc(CNc2nccc(Nc3cc(CCc4cccc(=O)[nH]4)[nH]n3)n2)on1 [Example 134, 6-[2-[5-[[2-[(3-methyl-1,2-oxazol-5-yl)methylamino]pyrimidin-4-yl]amino]-2H-pyrazol-3-yl]ethyl]-1H-pyridin-2-one dihydrochloride] |  | < 10000 nM | < 30000 nM |
| COc1cc(COc2cc(Nc3ccnc(NCc4cc(C)no4)n3)n[nH]2)c(F)cn1 [Example 135, N′-[5-[(5-fluoro-2-methoxy-pyridin-4-yl)methoxy]-1H-pyrazol-3-yl]-N-[(3-methyl-1,2-oxazol-5-yl)methyl]pyrimidine-2,4-diamine] |  | < 200 nM | < 1000 nM |
| COc1cc(CCc2cc(Nc3ccnc(NCc4cc(CN(C)C)no4)n3)n[nH]2)c(F)cn1 [Example 136, N-[[3-(dimethylaminomethyl)-1,2-oxazol-5-yl]methyl]-N′-[5-[2-(5-fluoro-2-methoxy-pyridin-4-yl)ethyl]-1H-pyrazol-3-yl]pyrimidine-2,4-diamine] |  | < 1000 nM | < 10000 nM |
| COc1ccnc(COc2cc(Nc3ccnc(NCc4cc(C)no4)n3)n[nH]2)c1 [Example 137, N′-[5-[(4-methoxypyridin-2-yl)methoxy]-1H-pyrazol-3-yl]-N-[(3-methyl-1,2-oxazol-5-yl)methyl]pyrimidine-2,4-diamine] |  | < 1000 nM | < 30000 nM |
| COc1cncc(CCc2cc(Nc3ccnc(NCc4cc(C)no4)n3)n[nH]2)c1 [Example 138, N′-[5-[2-(5-methoxypyridin-3-yl)ethyl]-1H-pyrazol-3-yl]-N-[(3-methyl-1,2-oxazol-5-yl)methyl]pyrimidine-2,4-diamine] |  | < 1000 nM | < 10000 nM |
| COc1cc(CCc2cc(Nc3ccnc(NCc4cc(C)no4)n3)n[nH]2)cc(NC(C)=O)c1 [Example 139, N-[3-methoxy-5-[2-[5-[[2-[(3-methyl-1,2-oxazol-5-yl)methylamino]pyrimidin-4-yl]amino]-2H-pyrazol-3-yl]ethyl]phenyl]acetamide] |  |  | < 30000 nM |
| CC(C)Oc1cccc(CCc2cc(Nc3ccnc(NCc4cc(C(N)=O)no4)n3)n[nH]2)c1 [Example 140, 5-[[[4-[[5-[2-(3-propan-2-yloxyphenyl)ethyl]-1H-pyrazol-3-yl]amino]pyrimidin-2-yl]amino]methyl]-1,2-oxazole-3-carboxamide] |  |  | < 10000 nM |
| CNC(=O)c1cccc(CCc2cc(Nc3ccnc(NCc4cc(C)no4)n3)n[nH]2)c1 [Example 141, N-methyl-3-[2-[5-[[2-[(3-methyl-1,2-oxazol-5-yl)methylamino]pyrimidin-4-yl]amino]-1H-pyrazol-3-yl]ethyl]benzamide] |  | < 200 nM | < 1000 nM |

From US20080004302A1, “Novel Compounds” (ASTRAZENECA AB, priority 2006, published 2008)
